{"source": "paper PMC6222672", "about": "“Pharmacokinetic and Metabolism Studies of 12-Riboside-Pseudoginsengenin DQ by UPLC-MS/MS and UPLC-QTOF-MS^E” (Molecules : A Journal of Synthetic Chemistry and Natural …, 2018)", "key": {"[1]": {"details": "cited from earlier work"}, "[2]": {"assay_type": "in vitro ADME", "details": "rat, 100 ng/mL", "protocol": "RPDQ and 20R-panaxadiol stock methanol solutions (1.00 mg/mL) were all prepared with the reference compounds, respectively. Firstly, blank rat plasma was prepared. The blood samples were collected immediately from the abdominal aorta and incubated at 37 °C for 30 min. The plasma was separated by centrifugation at 4000 rpm for 15 min, and was frozen at −20 °C until analysis. By spiking the dilute solutions with blank rat plasma, calibration curves were plotted to produce the points equivalent to 5, 10, 25, 50, 100, 300, 500, and 1000 ng/mL for RPDQ. […] All the QC and calibration standards samples were prepared freshly before analysis. The specificity, linearity, LLOQ, precision and accuracy, extraction recovery, matrix effect, diluted reliability, and stability of the method were validated by following a non-clinical drug pharmacokinetic study technical guideline (China Food And Drug Administration 2014) and the Bioanalytical Method Validation Guideline (Chinese Pharmacopoeia 2015, Vol. 4). Specificity was assessed by comparing blank plasma samples, plasma was spiked with RPDQ and 20R-panaxadiol, and plasma samples were collected after administration. Linearity was analyzed through weighted regression (1/x^2) of peak area ratios (y) of RPDQ to 20R-panaxadiol versus nominal concentration (x) in plasma. […] The intra- and inter-day precision and accuracy were evaluated with the analysis of six replicate QC samples on three consecutive days, respectively. The extraction recovery and matrix effect at three QC concentrations were assayed. By comparing peak areas of RPDQ and 20R-panaxadiol in extracted QC samples with those in post-extracted blank plasma samples, the recoveries were calculated. Moreover, by comparing the peak area of samples spiked after extraction with that of the neat solution’s equivalent concentration, the matrix effect was then evaluated. Stability was evaluated by analyzing replicate QC samples, which were stored at −20 °C for two weeks at room temperature for 4 h, and experienced three freeze/thaw cycles (from −20 °C to room temperature) on consecutive days. The stabilities of RPDQ in stock solutions at 15 °C and stored in plastic autosampler vials for 16 h at 10 °C were also assessed. Five-fold higher concentrations of QC were achieved by adding moderate RPDQ to blank plasma. The samples were then diluted and analyzed with undiluted calibration standards. The accuracy and precision were within acceptable limits (± 15%)."}, "[3]": {"assay": "Metabolite identification in rat plasma, bile, urine and feces by UPLC-QTOF-MSE", "assay_type": "in vivo", "details": "rats, RPDQ 48 mg/kg i.g.", "protocol": "For a metabolism study, RPDQ (48 mg/kg, i.g.) was administered to obtain a high concentration of metabolites. […] The pooled plasma sample (500 μL) was then added with methanol (2 mL) to vortex and precipitate proteins. Subsequently, the mixtures were centrifuged (10,000 rpm, 4 °C, 10 min) to obtain the supernatant, which was then evaporated by N2 to obtain the residue. Methanol (100 μL) was used to reconstitute the residue. In order to obtain bile samples, rats were anaesthetized with urethane (1.0 g/kg, intraperitoneal injection). After making an abdominal incision, the bile was collecting by surgically inserting a plastic cannula into the bile ducts. Prior to administration, blank bile was collected for 2 h. After administration, bile samples were collected for 12 h. By using metabolism cages, blank and dosed urine and feces samples were also collected prior to administration or 24 h after administration. After diluting each urine or bile sample (300 μL) with 1 mL of methanol, the mixture was centrifuged (10,000 rpm, 4 °C, 10 min) to obtain the supernatant, which was then evaporated by N2 to obtain the dried urine or bile residue. Methanol (50 μL) was then used to dissolve each residue. After centrifuging (10,000 rpm, 4 °C, 10 min), the clear supernatants were used for the analysis. […] Metabolic characterization of RPDQ was analyzed using UNIFI 1.7.0 software (Waters, Manchester, UK)."}, "[4]": {"details": "after intragastric administration"}}, "note": "Read-outs that look alike come from different tables or passages of the source."}
{"smiles": "CC(C)=CCC[C@](C)(O[C@@H]1O[C@H](CO)[C@@H](O)[C@H](O)[C@H]1O)[C@H]1CC[C@]2(C)[C@@H]1[C@H](O)C[C@@H]1[C@@]3(C)CC[C@H](O)C(C)(C)[C@@H]3CC[C@]12C", "note": "[CK, Ginsenoside CK]", "values": [{"measurement": "bioavailability", "setting": "[1]; [4]", "result": 4.30, "unit": "%"}]}
{"smiles": "CC1(C)CCCC(C)(C2CC[C@]3(C)C2C(O)CC2C4(C)CCC(O)C(C)(C)C4CCC23C)O1", "note": "(stereo partly drawn) [IS, 20R-panaxadiol, reference compound]", "values": [{"measurement": "Mean concentration", "setting": "[2]", "result": "94.11 ± 3.47", "unit": "ng/mL"}, {"measurement": "Accuracy", "setting": "[2]; 3 freeze-thaw cycles", "result": "−5.89", "unit": "%"}, {"measurement": "Accuracy", "setting": "[2]; 4 h", "result": "−7.66", "unit": "%"}, {"measurement": "Mean concentration", "setting": "[2]; 4 h", "result": "92.34 ± 3.12", "unit": "ng/mL"}, {"measurement": "Accuracy", "setting": "[2]; 16 h", "result": "−8.66", "unit": "%"}, {"measurement": "Mean concentration", "setting": "[2]; 16 h", "result": "91.34 ± 2.31", "unit": "ng/mL"}, {"measurement": "Accuracy", "setting": "[2]; 14 d", "result": "−5.26", "unit": "%"}, {"measurement": "Mean concentration", "setting": "[2]; 14 d", "result": "94.74 ± 4.25", "unit": "ng/mL"}]}
{"smiles": "CC(C)=CCC[C@](C)(O[C@@H]1O[C@H](CO[C@@H]2O[C@H](CO)[C@@H](O)[C@H](O)[C@H]2O)[C@@H](O)[C@H](O)[C@H]1O)[C@H]1CC[C@]2(C)[C@@H]1[C@H](O)C[C@@H]1[C@@]3(C)CC[C@H](O[C@@H]4O[C@H](CO)[C@@H](O)[C@H](O)[C@H]4O[C@@H]4O[C@H](CO)[C@@H](O)[C@H](O)[C@H]4O)C(C)(C)[C@@H]3CC[C@]12C", "note": "[Rb1, Ginsenosides Rb1]", "values": [{"measurement": "bioavailability", "setting": "[1]; [4]", "result": 0.78, "unit": "%"}, {"measurement": "biological half time (t1/2)", "setting": "[1]; [4]", "result": 9.8, "unit": "h"}]}
{"smiles": "CC(C)=CCC[C@](C)(O[C@@H]1O[C@H](CO[C@@H]2OC[C@H](O)[C@H](O)[C@H]2O)[C@@H](O)[C@H](O)[C@H]1O)[C@H]1CC[C@]2(C)[C@@H]1[C@H](O)C[C@@H]1[C@@]3(C)CC[C@H](O[C@@H]4O[C@H](CO)[C@@H](O)[C@H](O)[C@H]4O[C@@H]4O[C@H](CO)[C@@H](O)[C@H](O)[C@H]4O)C(C)(C)[C@@H]3CC[C@]12C", "note": "[Rb2]", "values": [{"measurement": "bioavailability", "setting": "[1]; [4]", "result": 0.08, "unit": "%"}, {"measurement": "biological half time (t1/2)", "setting": "[1]; [4]", "result": 23.1, "unit": "h"}]}
{"smiles": "CC(C)=CCC[C@](C)(O[C@@H]1O[C@H](CO[C@@H]2OC[C@@H](O)[C@H](O)[C@H]2O)[C@@H](O)[C@H](O)[C@H]1O)[C@H]1CC[C@]2(C)[C@@H]1[C@H](O)C[C@@H]1[C@@]3(C)CC[C@H](O[C@@H]4O[C@H](CO)[C@@H](O)[C@H](O)[C@H]4O[C@@H]4O[C@H](CO)[C@@H](O)[C@H](O)[C@H]4O)C(C)(C)[C@@H]3CC[C@]12C", "note": "[Rb3]", "values": [{"measurement": "bioavailability", "setting": "[1]; [4]", "result": 0.52, "unit": "%"}, {"measurement": "biological half time (t1/2)", "setting": "[1]; [4]", "result": 21.1, "unit": "h"}]}
{"smiles": "CC(C)=CCC[C@](C)(O[C@@H]1O[C@H](CO)[C@@H](O)[C@H](O)[C@H]1O)[C@H]1CC[C@]2(C)[C@@H]1[C@H](O)C[C@@H]1[C@@]3(C)CC[C@H](O)C(C)(C)[C@@H]3[C@@H](O[C@@H]3O[C@H](CO)[C@@H](O)[C@H](O)[C@H]3O)C[C@]12C", "note": "[Rg1]", "values": [{"measurement": "bioavailability", "setting": "[1]; [4]", "result": 1.33, "unit": "%"}]}
{"smiles": "CC(C)=CCC[C@](C)(O)[C@H]1CC[C@]2(C)[C@@H]1[C@H](O)C[C@@H]1[C@@]3(C)CC[C@H](O)C(C)(C)[C@@H]3[C@@H](O[C@@H]3O[C@H](CO)[C@@H](O)[C@H](O)[C@H]3O)C[C@]12C", "note": "[Rh1]", "values": [{"measurement": "bioavailability", "setting": "[1]; [4]", "result": 1.01, "unit": "%"}, {"measurement": "t1/2", "setting": "[1]; [4]", "result": 25.8, "unit": "min"}]}
{"smiles": "CC(C)=CCCC(C)(O)C1CCC2(C)C1C(O)CC1C3(C)CCC(O)C(C)(C)C3CCC12C", "note": "(stereo not shown) [protopanaxdiol]", "values": [{"measurement": "bioavailability (F)", "setting": "[1]; rat, in vivo, po", "result": 36.8, "unit": "%"}, {"measurement": "elimination half-life (t1/2)", "setting": "[1]; rat, in vivo, po", "result": 88.8, "unit": "min"}]}
{"smiles": "CC1(C)C(O)CCC2(C)C1CCC1(C)C2CC(O)C2C([C@]3(C)CC[C@@H](C(C)(C)O)O3)CC[C@]21C", "note": "(stereo partly shown) [pseudoginsengenin DQ]", "values": [{"measurement": "biological half time (t1/2)", "setting": "[1]; [4]", "result": 5.97, "unit": "h"}, {"measurement": "Source (samples in which detected: plasma, bile, feces, urine)", "setting": "[3]", "result": "P,B, F,U"}]}
